The record followed here is patent publication US20210283204A1, “Lin28a ACTIVATOR AND USE THEREFOR” (TES Holdings CO., LTD., priority 2016, published 2021).

This assay relates to Lin28a. The experiment in a line: Lin28a expression induction in mouse vascular endothelial cell line TKD2 cell (RT-PCR, agarose gel). The following applies: 100 μg/mL, cultured for 5 days, FIG. 1. The class given is cell-based. The method, then: Mouse vascular endothelial cell line TKD2 cell (National Institute of Biomedical Innovation, Health, and Nutrition, distributed from JCRB Cell Bank, Cell number: IF050374) was sown in advance in a 6-well plate to be 4×10^4 cells/well, and cultured overnight at 33° C. in 5% CO2 environment.
Subsequently, on the day after the date when the mouse vascular endothelial cell line TKD2 cell was sown, the exocrine secretion of Saccharomyces boulardii prepared in (1) was added to the culture medium to reach a final concentration of 100 μg/mL, and cultured for 5 days while performing addition. After the addition, the culture medium was not exchanged at all. […]
After culturing, the cell was isolated and recovered by using 0.25% of Trypsin-EDTA solution (manufactured by ThermoFisher Corporation, 25200056). […] From the total RNA, cDNA was produced by using ImProm-II (registered trademark) reverse Transcription System (Promega A3801), and expression of Lin28a was monitored by PCR using primers shown in the following Table 1. […]

For ganglioside, the “expression of Lin28a” value is on record as “expression of Lin28a was not induced”.
